BindingDB's records for patent US10213407 (The Procter & Gamble, 2019)

Target: T1, Carnitine monooxygenase oxygenase/reductase subunit (Escherichia coli (strain K12), UniProt P0ABR7+P76254)
T1 sequence (P0ABR7 whole entry): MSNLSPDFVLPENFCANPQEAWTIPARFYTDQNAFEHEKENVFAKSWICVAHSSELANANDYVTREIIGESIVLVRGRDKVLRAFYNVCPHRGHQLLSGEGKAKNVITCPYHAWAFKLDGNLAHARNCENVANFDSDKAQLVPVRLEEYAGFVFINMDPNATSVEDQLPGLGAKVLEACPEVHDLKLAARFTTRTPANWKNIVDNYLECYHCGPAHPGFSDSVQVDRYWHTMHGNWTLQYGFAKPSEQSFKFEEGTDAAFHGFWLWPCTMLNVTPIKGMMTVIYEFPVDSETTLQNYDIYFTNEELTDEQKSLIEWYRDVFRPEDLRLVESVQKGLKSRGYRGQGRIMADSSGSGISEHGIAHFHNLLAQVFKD
T1 sequence (P76254 whole entry): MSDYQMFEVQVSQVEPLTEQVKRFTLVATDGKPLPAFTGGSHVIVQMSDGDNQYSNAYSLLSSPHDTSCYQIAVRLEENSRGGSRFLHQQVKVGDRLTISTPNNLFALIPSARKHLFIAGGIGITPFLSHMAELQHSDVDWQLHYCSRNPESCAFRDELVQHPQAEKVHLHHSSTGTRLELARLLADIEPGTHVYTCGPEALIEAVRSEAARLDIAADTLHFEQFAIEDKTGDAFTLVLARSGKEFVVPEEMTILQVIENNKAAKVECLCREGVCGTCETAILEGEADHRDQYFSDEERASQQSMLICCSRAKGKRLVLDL
Assay: BCA Protein Assay
Excerpt: Escherichia coli BL21*DE3 pET30a-Ec yeaWX #1 (Ec YeaWX) strain was generated as described below. The contiguous Escherichia coli coding sequence yeaW (equivalent to uniprot ID P0ABR7.1 (YeaW) (SEQ ID NO: 2)) and yeaX (equivalent to uniprot ID P76254.1 (YeaX) (SEQ ID NO: 3)) were PCR amplified from Escherichia coli strain K-12 substr. BW25113 genomic DNA. PCR primers (YeaW_Nde I_fwd2-SEQ ID NO: 4; YeaX_rev2-SEQ ID NO: 5) were designed to create a 5′ NdeI restriction site including the ATG start codon of yeaW and create a PstI restriction site just 3′ of the yeaX TAG stop codon.The bacteria were grown aerobically in 50 mL LB broth (Difco #244620; 10 g/L Tryptone, 5 g/L yeast extract, 10 g/L NaCl, 50 μg/mL kanamycin), in a 500 mL Erlenmeyer flask. The cultures were inoculated from glycerol stock of BL21*DE3 pET30a-Ec yeaWX #1 strain. Strains were cultured all day at 37° C. with 250 rpm shaking. Two 300 mL Minimal M9 Medium (6 g/L Na2HPO4, 3 g/L KH2PO4, 0.5 g/L NaCl, 1 g/L NH4Cl, 0.1 mM CaCl2, 1 mM MgSO4, 0.2% Dextrose, 1 mg/L Thiamine, 50 μg/mL kanamycin), in 1 L Erlenmeyer flasks, were inoculated with 5 mL of the LB broth day culture and cultured overnight at 37° C. with 250 rpm shaking. The overnight cultures were used to inoculate twelve 1 L cultures of Minimal M9 media in 2.8 L fluted Erlenmeyer flasks to an OD 600 nm of 0.05 (typically approximately 28 mLs), which were grown at 37° C. with 250 rpm shaking until an OD600 of approximately 0.4 was reached. Expression of YeaWX was induced with 1 mM IPTG and the induced cultures were further grown overnight at 37° C. with 250 rpm shaking. The biomass was pelleted by centrifugation at 6000×g for 12 minutes at 4° C. The cell pellet was suspended in 240 mL of ice-cold 1× Phosphate Buffered Saline (Ca2+ and Mg2+ free). […] Glycerol was added to the centrifuged lysate supernatant at a final concentration of 15% A protein concentration of the centrifuged lysate supernatant was determined by a BCA Protein Assay Kit (Pierce #23225), typically in the 2.5 to 4.5 mg/ml range. […]

SMILES	IC50 [µM]
C[N+](C)(CC#N)CCN=C=S [US10213407, ID 8]	210
CCOC(=O)C[N+](CC)(CC)CCCN=C=S [US10213407, ID 3]	220
CCOC(=O)C[N+](C)(C)CCN=C=S [US10213407, ID 4]	300
